Biological target: T1, mouse Nurr1 receptor (Mus musculus, UniProt Q06219)
T1 construct: endogenously expressing the mouse Nurr1 receptor; host or cells: Neuro-2A (N2A) mouse neuroblastoma cells stably transfected with 8NBRE-luciferase
Assay: Evaluation of the in vitro activity on N2A cells (NBRE-luciferase reporter)
Type: cell-based
Details: N2A (Neuro-2A) cells stably transfected with 8NBRE-luciferase; products incubated 24 hours; luminescence
Description: The compounds according to the invention have formed the subject of pharmacological assays which make it possible to determine their modulatory effect on NOT. Evaluation of the In Vitro Activity on N2A Cells The activity of the compounds according to the invention was evaluated on a cell line (N2A) endogenously expressing the mouse Nurr1 receptor and stably transfected with the NOT binding response element (NBRE) coupled to the luciferase reporter gene. The EC50 values are between 0.01 and 10 μM. The assays were carried out according to the procedure described below. The Neuro-2A cell line comes from a standard commercial source (ATCC). The Neuro-2A clone was obtained, from a spontaneous tumour originating from an A albino mouse strain, by R. J Klebe et al. This Neuro-2A line is subsequently stably transfected with 8NBRE-luciferase. The N2A-8NBRE cells are cultured until confluence in 75 cm^2 culture flasks containing DMEM supplemented with 10% of foetal calf serum, 4.5 g/l of glucose and 0.4 mg/ml of geneticin. After a week of culture, the cells are recovered with 0.25% trypsin for 30 seconds and then resuspended in DMEM without phenol red, containing 4.5 g/l of glucose and 10% of Hyclone delipidized serum, and deposited into transparent-bottom 96-well white plates. The cells are deposited at a rate of 60 000 per well in 75 μl for 24 hours before the addition of the products. The products are applied in 25 μl and incubated for a further 24 hours. On the day of the measurement, an equivalent volume (100 μl) of Steadylite is added to each well and then left for a period of 30 minutes in order to obtain complete cell lysis and maximum signal production. The plates are subsequently measured in a luminescence counter for microplates after having been sealed with an adhesive film. The products are prepared in the form of a stock solution at 10^−2M and then diluted in 100% of DMSO. Each product concentration is prediluted in culture medium before incubation with the cells, thus containing 0.625% final concentration of DMSO. […] It is thus apparent that the compounds according to the invention have a modulatory effect on NOT.

T1 sequence (Q06219 whole entry): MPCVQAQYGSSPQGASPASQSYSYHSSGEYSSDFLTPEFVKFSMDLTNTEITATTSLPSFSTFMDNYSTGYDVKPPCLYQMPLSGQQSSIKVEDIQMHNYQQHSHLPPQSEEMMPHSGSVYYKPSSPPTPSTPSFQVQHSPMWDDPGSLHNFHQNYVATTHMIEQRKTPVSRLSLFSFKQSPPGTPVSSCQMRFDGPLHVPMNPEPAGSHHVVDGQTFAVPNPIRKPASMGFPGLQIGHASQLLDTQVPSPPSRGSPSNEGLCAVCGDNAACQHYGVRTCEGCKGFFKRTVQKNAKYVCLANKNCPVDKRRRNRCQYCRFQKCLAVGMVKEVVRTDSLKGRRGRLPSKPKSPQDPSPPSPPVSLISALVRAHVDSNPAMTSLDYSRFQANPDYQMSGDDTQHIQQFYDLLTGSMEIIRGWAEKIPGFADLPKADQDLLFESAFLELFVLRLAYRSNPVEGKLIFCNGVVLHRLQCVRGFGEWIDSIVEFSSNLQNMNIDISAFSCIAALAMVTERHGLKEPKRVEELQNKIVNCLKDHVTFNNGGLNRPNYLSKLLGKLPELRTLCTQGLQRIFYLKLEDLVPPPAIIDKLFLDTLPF

Row | Structure (SMILES) | EC50 [nM]
1 | OC1CCCc2ccc(-c3ccc4nc(-c5ccc(Cl)cc5)cn4c3)cc21 (centres unmarked) [Compound 8, 7-[2-(4-Chlorophenyl)imidazo[1,2-a]pyridin-6-yl]-1,2,3,4-tetrahydronaphth-1-ol] | 42
2 | COc1cccc(-c2cn3cc(-c4cc(C(C)(C)O)ccc4F)ccc3n2)c1 [Compound 33, 2-{4-Fluoro-3-[2-(3-methoxyphenyl)imidazo[1,2-a]pyridin-6-yl]phenyl}propan-2-ol] | 25
3 | COc1cccc(-c2cn3cc(-c4ccc(CO)c(F)c4)ccc3n2)c1 [Compound 17, {2-Fluoro-4-[2-(3-methoxyphenyl)imidazo[1,2-a]pyridin-6-yl]phenyl}methanol] | 93
4 | OCc1c(F)ccc(-c2ccc3nc(-c4ccc(Cl)cc4)cn3c2)c1F [Compound 3, {3-[2-(4-Chlorophenyl)imidazo[1,2-a]pyridin-6-yl]-2,6-difluorophenyl}methanol] | 0.5
5 | CC(O)c1ccc(F)c(-c2ccc3nc(-c4ccc(Cl)cc4)cn3c2)c1 (single isomer, unassigned; (+)) [Compound 29, (+)-1-{3-[2-(4-Chlorophenyl)imidazo[1,2-a]pyridin-6-yl]-4-fluorophenyl}ethanol] | 0.1
6 | OCc1c(F)ccc(-c2ccc3nc(-c4cccc(Br)c4)cn3c2)c1F [Compound 42, {3-[2-(3-Bromophenyl)imidazo[1,2-a]pyridin-6-yl]-2,6-difluorophenyl}methanol] | 1
7 | COCc1c(F)ccc(-c2ccc3nc(-c4ccc(C)cc4)cn3c2)c1F [Compound 37, 6-(2,4-Difluoro-3-methoxymethylphenyl)-2-(p-tolyl)imidazo[1,2-a]pyridine] | 74
8 | OCc1cc(-c2ccc3nc(-c4ccc(Cl)cc4)cn3c2)ccc1F [Compound 11, {5-[2-(4-Chlorophenyl)imidazo[1,2-a]pyridin-6-yl]-2-fluorophenyl}methanol] | 7.5
9 | O=[N+]([O-])c1ccc(-c2cn3cc(-c4cccc(F)c4CO)ccc3n2)cc1 [Compound 38, {2-Fluoro-6-[2-(4-nitrophenyl)imidazo[1,2-a]pyridin-6-yl]phenyl}methanol] | 211

Test system: not given
Assay: not given
Details: not given

Row | Structure (SMILES) | melting point [°C]
10 | CC(O)c1cccc(-c2ccc3nc(-c4ccc(Cl)cc4)cn3c2)c1F (centres unmarked) [Compound 2, 1-{3-[2-(4-Chlorophenyl)imidazo[1,2-a]pyridin-6-yl]-2-fluorophenyl}ethanol] | 193 to 195
11 | OCc1c(F)ccc(-c2ccc3nc(-c4ccc(Cl)cc4)cn3c2)c1F [Compound 3, {3-[2-(4-Chlorophenyl)imidazo[1,2-a]pyridin-6-yl]-2,6-difluorophenyl}methanol] | 214 to 216
